Data as given in patent publication US20250171459A1, “2-METHYL-4',5'-DIHYDROSPIRO[PIPERIDINE-4,7'-THIENO[2,3-C]PYRAN] DERIVATIVES AS INHIBITORS OF APOL1 AND METHODS OF USING SAME” (Vertex Pharmaceuticals Incorporated, priority 2022, published 2025).

Biological target: T1, APOL1 (Homo sapiens, UniProt O14791)
T1 sequence (O14791 1-398 S342G/I384M): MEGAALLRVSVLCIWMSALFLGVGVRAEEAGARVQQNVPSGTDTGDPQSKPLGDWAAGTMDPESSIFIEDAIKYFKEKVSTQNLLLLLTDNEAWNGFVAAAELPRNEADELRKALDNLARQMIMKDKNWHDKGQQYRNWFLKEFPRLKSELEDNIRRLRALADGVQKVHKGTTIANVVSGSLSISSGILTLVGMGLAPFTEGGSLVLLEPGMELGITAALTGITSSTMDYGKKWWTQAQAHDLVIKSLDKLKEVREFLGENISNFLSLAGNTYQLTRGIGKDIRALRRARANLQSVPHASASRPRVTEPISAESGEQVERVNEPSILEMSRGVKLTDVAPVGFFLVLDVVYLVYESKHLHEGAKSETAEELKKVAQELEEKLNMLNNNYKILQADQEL
Assay: MultiTox-Fluor Multiplex Cytotoxicity Assay in tet-inducible APOL1 T-REx-HEK293 cells (cell rescue, ratio of dead to live cells)
Format: cell-based
Conditions: tet-inducible transgenic APOL1 T-REx-HEK293 cell lines, 50 ng/mL tet, 24 hours; read-out: IP50 (i.e., IC50 for cell proliferation)
Source text: The MultiTox-Fluor Multiplex Cytotoxicity Assay is a single-reagent-addition, homogeneous, fluorescence assay that measures the number of live and dead cells simultaneously in culture wells. The assay measures cell viability and cytotoxicity by detecting two distinct protease activities. […] The substrate enters intact cells, where it is cleaved to generate a fluorescent signal proportional to the number of living cells. […] A ratio of dead to live cells is used to normalize data.
The MultiTox reagent was added to each well and placed back in the incubator for an additional 30 minutes. The plate was read on the EnVision plate reader. A ratio of dead to live cells was used to normalize, and data was imported, analyzed, and fit using Genedata Screener (Basel, Switzerland) software. Data was normalized using percent of control, no tet (100% viability), and 50 ng/mL tet treated (0% viability), and fit using Smart Fit. The reagents, methods, and complete protocol for the MultiTox assay are described below.
Cells were washed with DPBS and then trypsinized to dissociate from the flask. Media was used to quench the trypsin, cells were then pelleted at 200 g and resuspended in fresh cell assay media (DMEM, 2% Tet-free FBS, 2 mM L-glutamine, 100 Units/mL penicillin-streptomycin). […] The plates were then incubated at room temperature for one hour.
Tetracycline is needed to induce APOL1 expression. 1 mg/mL tet stock in water was diluted to 250 ng/mL (5×) in cell assay media.
Compounds were dispensed at 200 nL in DMSO. The final top concentration was 10 μM with a 10 point 3-fold dilution in duplicate in the MultiTox assay.
20 μL was transferred from the 5× tet plate to the ARP and mixed, then 5 μL of 5× tet and the compounds were transferred to the cell plate and mixed using the Bravo. The cell plate was placed in the humidified 37° C. 5% CO2 incubator for 24 hours.
The MultiTox-Fluor Multiplex Cytotoxicity Assay was performed in accordance with the manufacturer's protocol. After cells were incubated with tet and compound for 24 hours, 25 μL of 1× MultiTox reagent was added to each well using the Multidrop dispenser; the plates were placed on a plate shaker (600 rpm) for 2 minutes, then centrifuged briefly and placed back in the 37° C. incubator for 30 minutes. The cell viability (excitation: 400 nm, emission: 486 nm) and cytotoxicity (excitation: 485 nm, emission: 535 nm) were read using the EnVision plate reader. A ratio of dead (cytotoxicity) to live (viability) cells was reported. Data was exported and analyzed in Genedata. Data was normalized using percent of control, no tet (100% viability), and 50 ng/mL tet treated (0% viability), and fit using Smart Fit settings in Genedata.

SMILES | IC50 [nM]
CCc1cc2c(s1)CCO[C@@]21CCN(Cc2cn(C3CN(S(=O)(=O)c4cn[nH]c4)C3)nn2)[C@@H](C)C1 [Compound 4] | < 100
CCc1cc2c(s1)CCO[C@@]21CCN(Cc2cn(C3CN(S(=O)(=O)C4CC4)C3)nn2)[C@@H](C)C1 [Compound 5] | < 100
CCc1cc2c(s1)CCO[C@@]21CCN(Cc2cn(CCS(=O)(=O)NCCO)nn2)[C@@H](C)C1 [Compound 6, 2-[4-[[(2′S,4R)-2-ethyl-2′-methyl-spiro[6,7-dihydrothieno[3,2-c]pyran-4,4′-piperidine]-1′-yl]methyl]triazol-1-yl]-N-(2-hydroxyethyl)ethanesulfonamide] | < 100
CCc1cc2c(s1)CCO[C@@]21CCN(Cc2cn(CCS(=O)(=O)NCC(C)O)nn2)[C@@H](C)C1 (stereo partly drawn) [Compound 7, 2-[4-[[(2′S,4R)-2-ethyl-2′-methyl-spiro[6,7-dihydrothieno[3,2-c]pyran-4,4′-piperidine]-1′-yl]methyl]triazol-1-yl]-N-(2-hydroxypropyl)ethanesulfonamide] | < 100
CCc1cc2c(s1)CCO[C@@]21CCN(Cc2c[nH]nn2)[C@@H](C)C1 [Compound 8, (2′S,4R)-2-ethyl-2′-methyl-1′-(1H-triazol-4-ylmethyl)spiro[6,7-dihydrothieno[3,2-c]pyran-4,4′-piperidine]] | < 100
CCc1cc2c(s1)CCO[C@@]21CCN(Cc2cn(CCS(C)(=O)=O)nn2)[C@H](C)C1 [Compound 9, (2′R,4R)-2-ethyl-2′-methyl-1′-[[1-(2-methylsulfonylethyl)triazol-4-yl]methyl]spiro[6,7-dihydrothieno[3,2-c]pyran-4,4′-piperidine]] | 500 to 1000
CCc1cc2c(s1)CCO[C@]21CCN(Cc2cn(CCS(C)(=O)=O)nn2)[C@H](C)C1 [Compound 10, (2′R,4S)-2-ethyl-2′-methyl-1′-[[1-(2-methylsulfonylethyl)triazol-4-yl]methyl]spiro[6,7-dihydrothieno[3,2-c]pyran-4,4′-piperidine]] | 500 to 1000
CCc1cc2c(s1)CCO[C@@]21CCN(Cc2cn(CCS(C)(=O)=O)nn2)[C@@H](C)C1 [Compound 11, (2′S,4R)-2-ethyl-2′-methyl-1′-[[1-(2-methylsulfonylethyl)triazol-4-yl]methyl]spiro[6,7-dihydrothieno[3,2-c]pyran-4,4′-piperidine]] | < 100
CCc1cc2c(s1)CCO[C@@]21CCN(Cc2cn(CCS(=O)(=O)NC)nn2)[C@@H](C)C1 [Compound 12, 2-[4-[[(2′S)-2-ethyl-2′-methyl-spiro[6,7-dihydrothieno[3,2-c]pyran-4,4′-piperidine]-1′-yl]methyl]triazol-1-yl]-N-methyl-ethanesulfonamide] | < 100
CCc1cc2c(s1)CCO[C@@]21CCN(Cc2cn(CS(C)(=O)=O)nn2)[C@@H](C)C1 [Compound 13, (2′S)-2-ethyl-2′-methyl-1′-[[1-(methylsulfonylmethyl)triazol-4-yl]methyl]spiro[6,7-dihydrothieno[3,2-c]pyran-4,4′-piperidine]] | < 100
CCc1cc2c(s1)CCO[C@@]21CCN(Cc2cn(CS(=O)(=O)CC)nn2)[C@@H](C)C1 [Compound 14, (2′S)-2-ethyl-1′-[[1-(ethylsulfonylmethyl)triazol-4-yl]methyl]-2′-methyl-spiro[6,7-dihydrothieno[3,2-c]pyran-4,4′-piperidine]] | 100 to 500
CCc1cc2c(s1)CCO[C@@]21CCN(Cc2cn([C@@H]3CCN(C(=O)OC(C)(C)C)C3)nn2)[C@@H](C)C1 [Compound 15, tert-butyl (3R)-3-[4-[[(2′S,4R)-2-ethyl-2′-methyl-spiro[6,7-dihydrothieno[3,2-c]pyran-4,4′-piperidine]-1′-yl]methyl]triazol-1-yl]pyrrolidine-1-carboxylate] | 100 to 500
CCc1cc2c(s1)CCO[C@@]21CCN(Cc2cn(-c3cncc(O)c3)nn2)[C@@H](C)C1 [Compound 16, 5-[4-[[(2′S,4R)-2-ethyl-2′-methyl-spiro[6,7-dihydrothieno[3,2-c]pyran-4,4′-piperidine]-1′-yl]methyl]triazol-1-yl]pyridin-3-ol] | 100 to 500
CCc1cc2c(s1)CCO[C@@]21CCN(Cc2cn([C@H]3CCN(C(=O)OC(C)(C)C)C3)nn2)[C@@H](C)C1 [Compound 17] | < 100
CCc1cc2c(s1)CCO[C@@]21CCN(Cc2cn([C@H]3C[C@H](S(C)(=O)=O)C3)nn2)[C@@H](C)C1 [Compound 18] | < 100
CCc1cc2c(s1)CCO[C@@]21CCN(Cc2cn([C@H]3C[C@@H](S(C)(=O)=O)C3)nn2)[C@@H](C)C1 [Compound 19] | 100 to 500
CCc1cc2c(s1)CCO[C@@]21CCN(Cc2cn(C3CCN(S(C)(=O)=O)CC3)nn2)[C@@H](C)C1 [Compound 20] | 100 to 500
CCc1cc2c(s1)CCO[C@@]21CCN(Cc2cn(C3CN(C(=O)OC(C)(C)C)C3)nn2)[C@@H](C)C1 [Compound 21] | < 100
CCc1cc2c(s1)CCO[C@@]21CCN(Cc2cn(CCSC(F)(F)F)nn2)[C@@H](C)C1 [Compound 22] | < 100

SMILES | IC50 [nM]
CCc1cc2c(s1)CCO[C@@]21CCN(Cc2cn(CCSCCO)nn2)[C@@H](C)C1 [Compound 23] | < 100
CCc1cc2c(s1)CCO[C@@]21CCN(Cc2cn(CCSCC(C)(C)O)nn2)[C@@H](C)C1 [Compound 24] | < 100
CCc1cc2c(s1)CCO[C@@]21CCN(Cc2cn(C3CC4(C3)CS(=O)(=O)C4)nn2)[C@@H](C)C1 [Compound 25] | < 100
CCc1cc2c(s1)CCO[C@@]21CCN(Cc2cn(CCS(=O)(=O)c3ccccc3)nn2)[C@@H](C)C1 [Compound 26] | < 100
CCc1cc2c(s1)CCO[C@@]21CCN(Cc2cn([C@H]3CCN(S(C)(=O)=O)C3)nn2)[C@@H](C)C1 [Compound 27] | < 100
CCc1cc2c(s1)CCO[C@@]21CCN(Cc2cn(C3CCCN(S(C)(=O)=O)C3)nn2)[C@@H](C)C1 (stereo partly shown) [Compound 28] | 100 to 500
CCc1cc2c(s1)CCO[C@@]21CCN(Cc2cn(C3CS(=O)(=O)C3)nn2)[C@@H](C)C1 [Compound 29] | < 100
CCc1cc2c(s1)CCO[C@@]21CCN(Cc2cn(C3CCN(S(C)(=O)=O)C3)nn2)[C@@H](C)C1 (stereo partly shown) [Compound 30] | 100 to 500
CCc1cc2c(s1)CCO[C@@]21CCN(Cc2cn(CCn3ccnc3)nn2)[C@@H](C)C1 [Compound 31] | 100 to 500
CCc1cc2c(s1)CCO[C@@]21CCN(Cc2cn(Cc3cnc(C)cn3)nn2)[C@@H](C)C1 [Compound 32] | < 100
CCc1cc2c(s1)CCO[C@@]21CCN(Cc2cn(CC3CCO3)nn2)[C@@H](C)C1 (stereo partly shown) [Compound 33] | < 100
CCc1cc2c(s1)CCO[C@@]21CCN(Cc2cn(Cc3cnco3)nn2)[C@@H](C)C1 [Compound 34] | < 100
CCc1cc2c(s1)CCO[C@@]21CCN(Cc2cn(Cc3cocn3)nn2)[C@@H](C)C1 [Compound 35] | 100 to 500
CCc1cc2c(s1)CCO[C@@]21CCN(Cc2cn(CCc3cn(C)cn3)nn2)[C@@H](C)C1 [Compound 36] | 100 to 500
CCc1cc2c(s1)CCO[C@@]21CCN(Cc2cn(CCC#N)nn2)[C@@H](C)C1 [Compound 37] | < 100
CCc1cc2c(s1)CCO[C@@]21CCN(Cc2cn(Cc3cnccn3)nn2)[C@@H](C)C1 [Compound 38] | 100 to 500
CCc1cc2c(s1)CCO[C@@]21CCN(Cc2cn(Cc3c(CO)cnc(C)c3O)nn2)[C@@H](C)C1 [Compound 39] | 100 to 500
CCc1cc2c(s1)CCO[C@@]21CCN(Cc2cn(Cc3ncc(C)o3)nn2)[C@@H](C)C1 [Compound 40] | 100 to 500
